Data as given in PMC4965148 (PLoS ONE, 2016).
“And” between values parts separate entries of the source, which are not always exact repeats. Identical values can stand only once. Like-named read-outs stand apart in the source and are kept apart here.

Assays:
Estrogen receptor alpha = Estrogen receptor alpha (Homo sapiens, UniProt P03372); test: Selectivity panel, binding
L-type calcium channel = test: Selectivity panel, functional; format: cell-based; conditions: Human
5-HT transporter = 5-HT transporter (Homo sapiens, UniProt P31645); test: Selectivity panel, binding
Muscarinic M3 = Muscarinic M3 (Homo sapiens, UniProt P20309); test: Selectivity panel, binding; conditions: read-out: % inhibition @ 10 µM
Chain of Muscarinic M3 (P20309 whole entry): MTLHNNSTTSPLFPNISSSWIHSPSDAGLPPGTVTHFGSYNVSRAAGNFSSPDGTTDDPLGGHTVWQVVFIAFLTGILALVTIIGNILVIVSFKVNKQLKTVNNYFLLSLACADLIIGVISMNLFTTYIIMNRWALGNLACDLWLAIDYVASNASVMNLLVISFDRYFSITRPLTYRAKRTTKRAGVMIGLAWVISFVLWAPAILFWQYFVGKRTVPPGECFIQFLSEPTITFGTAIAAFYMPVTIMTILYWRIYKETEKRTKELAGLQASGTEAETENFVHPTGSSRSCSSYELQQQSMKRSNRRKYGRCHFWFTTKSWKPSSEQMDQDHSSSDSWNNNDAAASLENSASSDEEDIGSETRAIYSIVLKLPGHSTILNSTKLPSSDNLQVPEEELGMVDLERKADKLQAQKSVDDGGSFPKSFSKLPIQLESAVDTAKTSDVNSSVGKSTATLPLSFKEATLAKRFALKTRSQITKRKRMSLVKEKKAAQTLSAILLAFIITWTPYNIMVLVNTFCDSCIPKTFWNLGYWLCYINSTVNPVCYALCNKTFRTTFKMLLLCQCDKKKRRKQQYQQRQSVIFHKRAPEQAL

GABA-A α1β2γ2 = GABA-A α1β2γ2 (Homo sapiens, UniProt P14867+P18507+P47870); test: Selectivity panel, functional; format: cell-based
Rat Brain α7 nAChR = Rat Brain α7 nAChR (Rattus norvegicus, UniProt Q05941); test: [3H]-A-585539 filtration binding
Chain of Rat Brain α7 nAChR (Q05941 23-502): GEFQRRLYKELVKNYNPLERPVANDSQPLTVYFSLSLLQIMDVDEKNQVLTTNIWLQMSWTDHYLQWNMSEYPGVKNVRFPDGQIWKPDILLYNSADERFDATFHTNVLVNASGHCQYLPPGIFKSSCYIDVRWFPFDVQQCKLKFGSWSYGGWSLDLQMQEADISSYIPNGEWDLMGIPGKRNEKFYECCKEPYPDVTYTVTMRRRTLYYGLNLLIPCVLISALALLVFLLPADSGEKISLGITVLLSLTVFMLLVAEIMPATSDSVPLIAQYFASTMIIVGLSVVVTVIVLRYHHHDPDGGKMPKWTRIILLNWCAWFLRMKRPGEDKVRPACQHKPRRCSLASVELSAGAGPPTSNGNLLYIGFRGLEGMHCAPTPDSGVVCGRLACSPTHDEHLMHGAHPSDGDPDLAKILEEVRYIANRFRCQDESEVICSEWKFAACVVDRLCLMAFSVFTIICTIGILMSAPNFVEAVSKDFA

HEK293/Human α7 nAChR = HEK293/Human α7 nAChR (Homo sapiens, UniProt P36544); test: [3H]-A-585539 filtration binding; design: expressed in transfected cells
Chain of HEK293/Human α7 nAChR (P36544 23-502): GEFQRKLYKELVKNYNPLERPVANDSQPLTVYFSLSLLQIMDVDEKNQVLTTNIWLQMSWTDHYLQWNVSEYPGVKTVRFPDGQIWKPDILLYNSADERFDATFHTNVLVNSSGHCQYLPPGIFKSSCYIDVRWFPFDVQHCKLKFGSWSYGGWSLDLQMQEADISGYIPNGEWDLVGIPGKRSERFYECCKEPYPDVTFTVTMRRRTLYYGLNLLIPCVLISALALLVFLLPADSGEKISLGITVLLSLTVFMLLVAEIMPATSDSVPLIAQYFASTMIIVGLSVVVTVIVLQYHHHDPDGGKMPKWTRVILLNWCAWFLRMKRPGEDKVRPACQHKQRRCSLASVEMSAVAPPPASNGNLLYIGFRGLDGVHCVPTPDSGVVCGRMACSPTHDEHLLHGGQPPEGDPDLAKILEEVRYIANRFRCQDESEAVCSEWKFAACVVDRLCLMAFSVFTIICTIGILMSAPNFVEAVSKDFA

[1] = test system: S(+)ketamine treated rats; test: Rat S(+)ketamine N40 gating
Dopamine transporter = Dopamine transporter (Homo sapiens, UniProt Q01959); test: Selectivity panel, binding
Chain of Dopamine transporter (Q01959 whole entry): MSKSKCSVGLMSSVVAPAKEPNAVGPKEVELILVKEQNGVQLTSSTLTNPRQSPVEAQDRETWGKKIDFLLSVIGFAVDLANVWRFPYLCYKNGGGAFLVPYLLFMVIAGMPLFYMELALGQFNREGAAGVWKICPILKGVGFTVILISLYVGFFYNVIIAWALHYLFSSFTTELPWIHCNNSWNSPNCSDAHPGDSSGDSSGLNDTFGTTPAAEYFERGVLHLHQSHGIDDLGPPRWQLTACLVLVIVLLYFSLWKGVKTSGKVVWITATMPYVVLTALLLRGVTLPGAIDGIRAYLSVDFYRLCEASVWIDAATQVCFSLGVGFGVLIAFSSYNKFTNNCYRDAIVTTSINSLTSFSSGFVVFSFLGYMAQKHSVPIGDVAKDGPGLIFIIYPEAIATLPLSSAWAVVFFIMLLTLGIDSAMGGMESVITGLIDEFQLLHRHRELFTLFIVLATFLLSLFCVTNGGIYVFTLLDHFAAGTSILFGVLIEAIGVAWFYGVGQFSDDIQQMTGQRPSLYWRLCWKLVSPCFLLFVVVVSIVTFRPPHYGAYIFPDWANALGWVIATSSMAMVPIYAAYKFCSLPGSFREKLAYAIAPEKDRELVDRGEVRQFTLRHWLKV

Dopamine D2 = Dopamine D2 (Homo sapiens, UniProt P14416); test: Selectivity panel, binding
rat α3β4 nAChR = biological target: T1, rat α3β4 nAChR (Rattus norvegicus, UniProt P04757+P12392); test: Ca2+ flux (FLIPR) agonist/antagonist assay; format: cell-based; conditions: FLIPR antagonist mode, EC90 ACh
T1 construct: expressed in transfected cells; host or cells: HEK293 (made by Bristol-Myers Squibb)

Muscarinic M1 = Muscarinic M1 (Homo sapiens, UniProt P11229); test: Selectivity panel, binding; conditions: read-out: % inhibition @ 10 µM
Chain of Muscarinic M1 (P11229 whole entry): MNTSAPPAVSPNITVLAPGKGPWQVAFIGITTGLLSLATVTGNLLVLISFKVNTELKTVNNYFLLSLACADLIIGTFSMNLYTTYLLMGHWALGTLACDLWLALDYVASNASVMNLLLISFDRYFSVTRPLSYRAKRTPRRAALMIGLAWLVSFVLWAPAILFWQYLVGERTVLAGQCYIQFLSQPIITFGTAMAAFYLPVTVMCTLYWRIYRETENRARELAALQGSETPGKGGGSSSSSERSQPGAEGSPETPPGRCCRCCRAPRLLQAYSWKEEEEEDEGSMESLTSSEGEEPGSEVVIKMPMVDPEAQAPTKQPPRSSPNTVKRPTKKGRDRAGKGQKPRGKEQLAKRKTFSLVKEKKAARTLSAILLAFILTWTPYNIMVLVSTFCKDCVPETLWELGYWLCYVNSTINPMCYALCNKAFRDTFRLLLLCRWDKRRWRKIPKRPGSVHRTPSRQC

Acetylcholinesterase = Acetylcholinesterase (Electrophorus electricus, UniProt O42275); test: Selectivity panel, enzyme; format: biochemical; conditions: Eel
NMDA NR1/2A = NMDA NR1/2A (Homo sapiens, UniProt Q05586+Q12879); test: Selectivity panel, functional; format: cell-based
Muscarinic M2 = Muscarinic M2 (Homo sapiens, UniProt P08172); test: Selectivity panel, binding
rat α4β2 nAChR = biological target: T2, rat α4β2 nAChR (Rattus norvegicus, UniProt P09483+P12390); test: Ca2+ flux (FLIPR) agonist/antagonist assay; format: cell-based; conditions: FLIPR antagonist mode, EC90 ACh
T2 construct: expressed in transfected cells; host or cells: HEK293 (made by Bristol-Myers Squibb)

[2] = biological target: T3, HEK293/human α7 nAChR cells (Homo sapiens, UniProt P36544); test: Whole cell voltage clamp electrophysiology; format: cell-based; conditions: for Net Charge (Current Area) normalized to 300 µM ACh / Peak Current normalized to 3 mM ACh: individual cells
T3 construct: expressed in transfected cells
T3 sequence (P36544 23-502): as the sequence (P36544 23-502) above
Procedure: Whole-cell voltage clamp studies were conducted on HEK293/rat α7 or HEK293/human α7 nAChR cells. […] Atropine (1 μM) was included in the bathing solution. […] Cells were voltage clamped at a holding potential of -90 mV. Using the Dynaflow microfluidic perfusion system (Cellectricon; flow 26 μl/min) responses to a 300 ms application of ACh or α7 nAChR agonists were measured. Currents were filtered at 2 kHz and sampled at 10 kHz using an EPC-9 amplifier and HEKA Pulse/Patchmaster software. […] The peak current amplitude and net charge crossing the membrane (i.e. the area under the current response curve) induced by agonist application were measured using Clampfit (pClamp Suite) and normalized to the maximal response induced by ACh (3 mM ACh for peak current amplitude and 300 μM ACh for net charge).

MAO-B = MAO-B (Homo sapiens, UniProt P27338); test: Selectivity panel, enzyme; format: biochemical
Dopamine D1 = Dopamine D1 (Homo sapiens, UniProt P21728); test: Selectivity panel, binding
MAO-A = MAO-A (Homo sapiens, UniProt P21397); test: Selectivity panel, enzyme; format: biochemical
Chain of MAO-A (P21397 whole entry): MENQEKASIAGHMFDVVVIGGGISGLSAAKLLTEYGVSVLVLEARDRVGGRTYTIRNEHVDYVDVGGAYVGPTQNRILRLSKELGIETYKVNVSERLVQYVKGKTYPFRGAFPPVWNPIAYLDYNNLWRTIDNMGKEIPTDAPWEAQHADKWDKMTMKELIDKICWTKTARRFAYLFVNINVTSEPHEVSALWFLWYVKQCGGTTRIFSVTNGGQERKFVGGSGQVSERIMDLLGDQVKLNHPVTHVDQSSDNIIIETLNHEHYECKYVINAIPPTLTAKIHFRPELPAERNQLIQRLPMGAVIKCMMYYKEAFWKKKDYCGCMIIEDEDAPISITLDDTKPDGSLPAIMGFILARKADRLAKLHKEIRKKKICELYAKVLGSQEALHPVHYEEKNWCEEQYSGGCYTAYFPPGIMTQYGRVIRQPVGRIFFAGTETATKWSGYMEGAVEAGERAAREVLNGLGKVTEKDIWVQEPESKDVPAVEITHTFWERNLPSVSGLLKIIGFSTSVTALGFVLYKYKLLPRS

Histamine H2 = Histamine H2 (Homo sapiens, UniProt P25021); test: Selectivity panel, binding
Adrenergic α1D = Adrenergic α1D (Homo sapiens, UniProt P25100); test: Selectivity panel, binding
Chain of Adrenergic α1D (P25100 whole entry): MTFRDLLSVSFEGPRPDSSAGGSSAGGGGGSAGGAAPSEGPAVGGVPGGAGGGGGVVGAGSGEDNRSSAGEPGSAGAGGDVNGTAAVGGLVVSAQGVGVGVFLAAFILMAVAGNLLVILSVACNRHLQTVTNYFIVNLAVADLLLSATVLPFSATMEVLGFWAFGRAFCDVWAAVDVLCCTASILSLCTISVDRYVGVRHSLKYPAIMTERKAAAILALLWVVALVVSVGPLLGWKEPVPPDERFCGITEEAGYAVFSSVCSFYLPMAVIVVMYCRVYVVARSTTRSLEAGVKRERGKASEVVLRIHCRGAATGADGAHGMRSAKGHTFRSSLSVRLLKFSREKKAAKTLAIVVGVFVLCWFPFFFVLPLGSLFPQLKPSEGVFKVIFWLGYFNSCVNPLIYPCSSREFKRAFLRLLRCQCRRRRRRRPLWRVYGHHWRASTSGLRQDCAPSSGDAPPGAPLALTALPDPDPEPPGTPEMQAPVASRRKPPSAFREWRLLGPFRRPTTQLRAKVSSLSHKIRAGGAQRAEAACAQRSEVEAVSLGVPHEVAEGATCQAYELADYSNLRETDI

Progesterone receptor = Progesterone receptor (Homo sapiens, UniProt P06401); test: Selectivity panel, binding
Chain of Progesterone receptor (P06401 whole entry): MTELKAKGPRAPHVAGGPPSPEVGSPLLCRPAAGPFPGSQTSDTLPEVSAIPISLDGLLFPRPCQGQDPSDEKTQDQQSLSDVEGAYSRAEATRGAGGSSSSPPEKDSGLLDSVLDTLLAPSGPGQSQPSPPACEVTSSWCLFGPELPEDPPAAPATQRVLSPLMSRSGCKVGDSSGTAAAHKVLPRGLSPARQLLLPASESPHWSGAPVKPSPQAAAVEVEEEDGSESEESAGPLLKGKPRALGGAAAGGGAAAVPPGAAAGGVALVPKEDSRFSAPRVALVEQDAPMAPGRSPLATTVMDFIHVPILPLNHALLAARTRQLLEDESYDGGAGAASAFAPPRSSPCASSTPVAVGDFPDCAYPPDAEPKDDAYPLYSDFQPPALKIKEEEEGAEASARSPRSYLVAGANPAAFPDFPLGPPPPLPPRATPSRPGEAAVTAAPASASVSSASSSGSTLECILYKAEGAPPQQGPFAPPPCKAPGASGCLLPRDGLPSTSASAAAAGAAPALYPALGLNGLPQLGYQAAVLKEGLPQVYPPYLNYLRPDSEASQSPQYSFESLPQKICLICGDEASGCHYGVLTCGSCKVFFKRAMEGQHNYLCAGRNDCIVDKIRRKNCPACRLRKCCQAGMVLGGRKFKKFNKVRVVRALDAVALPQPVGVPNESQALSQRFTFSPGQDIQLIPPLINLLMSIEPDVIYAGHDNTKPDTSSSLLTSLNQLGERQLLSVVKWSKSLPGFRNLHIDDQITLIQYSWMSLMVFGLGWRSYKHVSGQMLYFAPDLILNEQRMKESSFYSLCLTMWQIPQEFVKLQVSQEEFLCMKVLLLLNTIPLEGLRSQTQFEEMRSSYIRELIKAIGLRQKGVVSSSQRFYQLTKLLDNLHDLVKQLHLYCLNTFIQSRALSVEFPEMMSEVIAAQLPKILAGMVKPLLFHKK

[3] = Plasma and brain concentrations after dosing; format: in vivo, mouse; conditions: for Brain Mean ± SD / concentration at 30 min / Kp at 30 min: 30 min; for concentration at 60 min: sc, Mouse MK-801 Y Maze
Procedure: Occupancy determinations were made either on completion of behavioral testing or in satellite groups of animals dosed in parallel with behavioral testing. At specified time points after dosing, the forebrain (for occupancy), the remaining hindbrain (for brain drug exposure) and plasma were collected, frozen in chilled isopentane and stored at -80°C until assayed. […] Homogenized tissue aliquots were frozen immediately and stored at -80°C. […] Non-specific binding was defined by adding 25 μM MLA to wells containing tissues from vehicle-treated animals. […] The filters were washed with ice-cold assay buffer, punched into a clear plate and 200 μl scintillation fluid added per well. Bound radioactivity was measured using a Wallac Microbeta liquid scintillation counter. Specific binding was calculated by subtracting the value of the non-specific binding from that of the total binding in each sample. The percent occupancy was calculated as [1 –(specific binding in drug treated mice/specific binding in vehicle treated mice)] x 100.
In brief, 50 μL of the plasma sample was extracted by protein precipitation with 150 μL acetonitrile containing an internal standard and 5 μL of supernatant injected into the LC-MS/MS system. Analytes were separated by reversed phase chromatography and detection of each analyte was achieved through selected reaction monitoring mode of mass spectrometry.

Opiate Mu = Opiate Mu (Homo sapiens, UniProt P35372); test: Selectivity panel, binding

Structure (SMILES): c1cn(-c2cc(NC3=NC[C@@]4(CN5CCC4CC5)O3)ncn2)cn1 [BMS-933043, (2R)-N-(6-(1H-imidazol-1-yl)-4-pyrimidinyl)-4'H-spiro[4-azabicyclo[2.2.2]octane-2,5'-[1,3]oxazol]-2'-amine]
- IC50 (Estrogen receptor alpha): > 150000 nM
- IC50 (L-type calcium channel): > 25000 nM
- IC50 (5-HT transporter): > 30000 nM
- inhibition at 10 µM (Muscarinic M3): 18%
- IC50 (GABA-A α1β2γ2): > 30000 nM
- Ki (Rat Brain α7 nAChR; Rat Brain α7 nAChR Ki (individual)): 2.67 nM and 2.99 nM and 3.08 nM and 3.74 nM and 3.2 nM and 3.82 nM
- Ki (Rat Brain α7 nAChR; Rat Brain α7 nAChR Mean ± SD Ki): 3 nM
- Ki (Rat Brain α7 nAChR; read-out: Rat Brain α7 nAChR Mean ± SD Ki): 3.3 nM
- Ki (HEK293/Human α7 nAChR; HEK293/Human α7 nAChR Mean ± SD Ki): 8 nM
- Ki (HEK293/Human α7 nAChR; HEK293/human α7 nAChR Ki (individual)): 10.5 nM and 5.7 nM
- Ki (HEK293/Human α7 nAChR; read-out: HEK293/Human α7 nAChR Mean ± SD Ki): 8.1 nM
- Ki (HEK293/Human α7 nAChR; read-out: HEK293/human α7 nAChR Ki (individual)): 8.1 nM
- deficit in N40 gating following S(+)ketamine ([1]; 0.3 and 10 mg/kg sc): neither the lowest dose (0.3 mg/kg; data not shown) nor the highest dose (10 mg/kg) tested were significantly different
- deficit in N40 gating following S(+)ketamine ([1]; 0.56, 1 and 3 mg/kg sc): significant reduction
- Active dose range, S(+)Ketamine N40 gating ([1]; sc): 0.56–3.0 (sc) mg/kg
- IC50 (Dopamine transporter): > 30000 nM
- IC50 (Dopamine D2): > 30000 nM
- IC50 (rat α3β4 nAChR): > 30000 nM
- inhibition at 10 µM (Muscarinic M1): 11%
- IC50 (Acetylcholinesterase): > 60000 nM
- IC50 (NMDA NR1/2A): > 30000 nM
- IC50 (Muscarinic M2): 19100 nM
- IC50 (rat α4β2 nAChR): > 30000 nM
- EC50 [2]: 290 ± 10 nM
- Net Charge (Current Area) normalized to 300 µM ACh ([2]; 0.1 µM): 0.01982 and 0.01318 and 0.03866 and 0.03782 and 0.02283 and 0.01327 and 0.03856
- Peak Current normalized to 3 mM ACh ([2]; 0.1 µM): 0.005961 and 0.006675 and 0.008382 and 0.007317 and 0.006875 and 0.005721 and 0.00606
- Net Charge (Current Area) normalized to 300 µM ACh ([2]; 0.3 µM): 0.3496 and 0.3624 and 0.3212 and 0.3215 and 0.2954 and 0.3576 and 0.4143
- Peak Current normalized to 3 mM ACh ([2]; 0.3 µM): 0.02637 and 0.02303 and 0.02389 and 0.02438 and 0.0295 and 0.03259 and 0.02737
- Net Charge (Current Area) normalized to 300 µM ACh ([2]; 1 µM): 0.6952 and 0.6304 and 0.6554 and 0.6122 and 0.619 and 0.6592 and 0.8129
- Peak Current normalized to 3 mM ACh ([2]; 1 µM): 0.05479 and 0.03294 and 0.04392 and 0.05131 and 0.08504 and 0.08024 and 0.07272
- Net Charge (Current Area) normalized to 300 µM ACh ([2]; 3 µM): 0.7025 and 0.6903 and 0.6991 and 0.888 and 0.7947 and 0.7791 and 0.7655
- Peak Current normalized to 3 mM ACh ([2]; 3 µM): 0.126 and 0.0997 and 0.1092 and 0.09913 and 0.1966 and 0.202 and 0.183
- Net Charge (Current Area) normalized to 300 µM ACh ([2]; 10 µM): 0.8035 and 0.7537 and 0.7969 and 0.7637 and 0.7224 and 0.6788 and 0.8823
- Peak Current normalized to 3 mM ACh ([2]; 10 µM): 0.217 and 0.1532 and 0.1702 and 0.1779 and 0.3334 and 0.2987 and 0.3004
- Mean ± SEM Net Charge Ymax ([2]; Human, normalized to 300 μM ACh): 0.78 ± 0.004
- Mean ± SEM Peak Current Ymaxobs @ 10 μM ([2]; Human, normalized to 3 mM ACh): 0.24 ± 0.03
- IC50 (MAO-B): > 30000 nM
- IC50 (Dopamine D1): > 30000 nM
- IC50 (MAO-A): > 30000 nM
- IC50 (Histamine H2): > 30000 nM
- IC50 (Adrenergic α1D): > 30000 nM
- IC50 (Progesterone receptor): > 150000 nM
- Brain Mean ± SD ([3]; Mouse NOR (0.03-1 mg/kg study), 0.03 mg/kg sc): < LLQ
- Brain Mean ± SD ([3]; Mouse NOR (0.03-1 mg/kg study), 0.10 mg/kg sc): < LLQ
- concentration at 30 min ([3]; mouse, brain, subcutaneous, 0.3 mg/kg, Mouse NOR (0.03-1 mg/kg study), 0.30 mg/kg sc, read-out: Brain Mean ± SD): 24 ± 3.9 nM
- concentration at 30 min ([3]; mouse, brain, subcutaneous, 1 mg/kg, Mouse NOR (0.03-1 mg/kg study), 1 mg/kg sc, read-out: Brain Mean ± SD): 78 ± 5.2 nM
- concentration at 30 min ([3]; mouse, brain, subcutaneous, 1 mg/kg, Mouse NOR (1-10 mg/kg study), 1 mg/kg sc, read-out: Brain Mean ± SD): 97 ± 16 nM
- concentration at 30 min ([3]; mouse, brain, subcutaneous, 3 mg/kg, Mouse NOR (1-10 mg/kg study), 3 mg/kg sc, read-out: Brain Mean ± SD): 297 ± 48 nM
- concentration at 30 min ([3]; mouse, brain, subcutaneous, 10 mg/kg, Mouse NOR (1-10 mg/kg study), 10 mg/kg sc, read-out: Brain Mean ± SD): 1110 nM
- Kp at 30 min ([3]; mouse, brain/plasma, subcutaneous, 0.3 mg/kg, Mouse NOR (0.03-1 mg/kg study), 0.30 mg/kg sc): 0.12
- Kp at 30 min ([3]; mouse, brain/plasma, subcutaneous, 1 mg/kg, Mouse NOR (0.03-1 mg/kg study), 1 mg/kg sc): 0.11
- Kp at 30 min ([3]; mouse, brain/plasma, subcutaneous, 1 mg/kg, Mouse NOR (1-10 mg/kg study), 1 mg/kg sc): 0.21
- Kp at 30 min ([3]; mouse, brain/plasma, subcutaneous, 3 mg/kg, Mouse NOR (1-10 mg/kg study), 3 mg/kg sc): 0.19
- Kp at 30 min ([3]; mouse, brain/plasma, subcutaneous, 10 mg/kg, Mouse NOR (1-10 mg/kg study), 10 mg/kg sc): 0.2
- Kp ([3]; mouse, brain/plasma, subcutaneous, mice, read-out: average brain/plasma): 0.17
- concentration at 60 min ([3]; mouse, plasma, 0.03 mg/kg, 0.03 mg/kg sc, read-out: Plasma Mean ± SD): 5 ± 0.4 nM
- concentration at 60 min ([3]; mouse, plasma, 0.1 mg/kg, 0.10 mg/kg sc, read-out: Plasma Mean ± SD): 21 ± 2.4 nM
- concentration at 60 min ([3]; mouse, plasma, 0.3 mg/kg, 0.30 mg/kg sc, read-out: Plasma Mean ± SD): 94 ± 19 nM
- concentration at 60 min ([3]; mouse, plasma, 1 mg/kg, 1 mg/kg sc, read-out: Plasma Mean ± SD): 254 ± 32 nM
- concentration at 60 min ([3]; mouse, plasma, 3 mg/kg, 3 mg/kg sc, read-out: Plasma Mean ± SD): 774 ± 282 nM
- concentration at 60 min ([3]; mouse, plasma, 10 mg/kg, 10 mg/kg sc, read-out: Plasma Mean ± SD): 2980 nM
- concentration at 30 min ([3]; mouse, plasma, subcutaneous, 0.03 mg/kg, Mouse NOR (0.03-1 mg/kg study), 0.03 mg/kg sc, read-out: Plasma Mean ± SD): 14 ± 2.7 nM
- concentration at 30 min ([3]; mouse, plasma, subcutaneous, 0.1 mg/kg, Mouse NOR (0.03-1 mg/kg study), 0.10 mg/kg sc, read-out: Plasma Mean ± SD): 52 ± 3.6 nM
- concentration at 30 min ([3]; mouse, plasma, subcutaneous, 0.3 mg/kg, Mouse NOR (0.03-1 mg/kg study), 0.30 mg/kg sc, read-out: Plasma Mean ± SD): 213 ± 49 nM
- concentration at 30 min ([3]; mouse, plasma, subcutaneous, 1 mg/kg, Mouse NOR (0.03-1 mg/kg study), 1 mg/kg sc, read-out: Plasma Mean ± SD): 719 ± 69 nM
- concentration at 30 min ([3]; mouse, plasma, subcutaneous, 1 mg/kg, Mouse NOR (1-10 mg/kg study), 1 mg/kg sc, read-out: Plasma Mean ± SD): 459 ± 59 nM
- concentration at 30 min ([3]; mouse, plasma, subcutaneous, 3 mg/kg, Mouse NOR (1-10 mg/kg study), 3 mg/kg sc, read-out: Plasma Mean ± SD): 1570 nM
- concentration at 30 min ([3]; mouse, plasma, subcutaneous, 10 mg/kg, Mouse NOR (1-10 mg/kg study), 10 mg/kg sc, read-out: Plasma Mean ± SD): 5560 nM
- IC50 (Opiate Mu): > 30000 nM
